≈ marks a conversion by molar mass, not a printed value.
Tests used:
[1] = system: Influenza A virus; assay: Inhibition of plaque formation; type: functional, organism-based
[2] = biological target: Neuraminidase (Influenza A virus (A/Puerto Rico/8/1934(H1N1)), UniProt P03468); assay: Inhibition of sialidase activity; type: functional, Influenza A virus (strain: A/PR/8/34)
Neuraminidase (Influenza A virus (A/Puerto Rico/8/1934(H1N1)), UniProt P03468), sequence (P03468 whole entry): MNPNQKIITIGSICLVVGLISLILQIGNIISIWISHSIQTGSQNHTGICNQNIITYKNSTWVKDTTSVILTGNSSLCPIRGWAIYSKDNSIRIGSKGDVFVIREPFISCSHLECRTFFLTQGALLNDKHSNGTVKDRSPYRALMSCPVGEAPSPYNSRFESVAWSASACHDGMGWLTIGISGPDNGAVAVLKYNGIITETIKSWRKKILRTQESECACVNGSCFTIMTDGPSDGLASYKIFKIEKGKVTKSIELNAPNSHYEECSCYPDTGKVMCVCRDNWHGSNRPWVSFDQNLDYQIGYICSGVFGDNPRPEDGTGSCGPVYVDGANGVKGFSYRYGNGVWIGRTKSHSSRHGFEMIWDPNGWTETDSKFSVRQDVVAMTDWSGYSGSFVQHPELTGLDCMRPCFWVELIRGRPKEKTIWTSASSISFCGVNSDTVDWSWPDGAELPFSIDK

CCCCCCCCCCCCCCCC(=O)N[C@@H]([C@@H]1OC(C(=O)O)=C[C@H](N=C(N)N)[C@H]1NC(C)=O)[C@H](O)CO.O=C(O)C(F)(F)F
IC50 [1]: 80 ng/mL
IC50 [2]: 68.7 nM

CC(=O)N[C@H]1[C@H]([C@H](F)[C@H](O)CO)OC(C(=O)O)=C[C@@H]1NC(=N)N.O=C(O)C(F)(F)F
IC50 [1]: 1.8 ng/mL
IC50 [2]: 1.78 nM

CC(=O)N[C@H]1[C@H]([C@H](N)[C@H](O)CO)OC(C(=O)O)=C[C@@H]1NC(=N)N.O=C(O)C(F)(F)F
IC50 [1]: 20 ng/mL
IC50 [2]: 84 nM

CC(=O)N[C@H]1[C@H]([C@H](N=[N+]=[N-])[C@H](O)CO)OC(C(=O)O)=C[C@@H]1NC(=N)N.O=C(O)C(F)(F)F
IC50 [1]: 0.3 ng/mL
IC50 [2]: 3.39 nM

CC(=O)N[C@@H]1[C@@H](N=C(N)N)C=C(C(=O)O)O[C@H]1C[C@H](O)CO.O=C(O)C(F)(F)F
IC50 [1]: 10 ng/mL
IC50 [2]: 93 nM

CO[C@@H]([C@@H]1OC(C(=O)O)=C[C@H](N=C(N)N)[C@H]1NC(C)=O)[C@H](O)CO.O=C(O)C(F)(F)F
IC50 [1]: 3 ng/mL

CC(=O)N[C@@H]([C@@H]1OC(C(=O)O)=C[C@H](N=C(N)N)[C@H]1NC(C)=O)[C@H](O)CO
IC50 [2]: 37.1 nM

CCCCCCCC(=O)N[C@@H]([C@@H]1OC(C(=O)O)=C[C@H](N=C(N)N)[C@H]1NC(C)=O)[C@H](O)CO.O=C(O)C(F)(F)F
IC50 [1]: 100 ng/mL
IC50 [2]: 84 nM

CCO[C@@H]([C@@H]1OC(C(=O)O)=C[C@H](N=C(N)N)[C@H]1NC(C)=O)[C@H](O)CO.O=C(O)C(F)(F)F
IC50 [1]: 0.7 ng/mL
IC50 [2]: 30.8 nM

CCC(=O)N[C@@H]([C@@H]1OC(C(=O)O)=C[C@H](N=C(N)N)[C@H]1NC(C)=O)[C@H](O)CO.O=C(O)C(F)(F)F
IC50 [1]: 4 ng/mL
IC50 [2]: 19.9 nM

CC(=O)N[C@@H]1[C@@H](NC(=N)N)C=C(C(=O)O)O[C@H]1C(F)(F)[C@H](O)CO.O=C(O)C(F)(F)F
IC50 [1]: 400 ng/mL
IC50 [2]: 1030 nM

CC(=O)N[C@H]1[C@H]([C@H](O)[C@H](O)CO)OC(C(=O)O)=C[C@@H]1NC(=N)N [ZANAMIVIR]
IC50 [1]: 1 ng/mL (≈ 3.01 nM)

Source: ChEMBL document CHEMBL1135180, “Synthesis and anti-influenza virus activity of 4-guanidino-7-substituted Neu5Ac2en derivatives” (Bioorg Med Chem Lett, 2002)
